The structures appear in SMILES notation.

For the assay, the target named is recombinant DYRK1A kinase (Homo sapiens (Human), UniProt Q13627). Nature of the assay: DYRK1A kinase assay (Ser/Thr 18 peptide Z-lyte FRET assay). It counts as biochemical. Conditions: DYRK1A kinase activity; 15 μM ATP, 1 h room temperature; method text calls the value IC50. The method in brief:
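FRET Z-lyte read-out (coumarin/fluorescein ratio, % phosphorylation) after 1 h development; IC50 from non-linear curve fit. Reaction: 0.25 μg/mL recombinant human DYRK1A, Ser/Thr 18 peptide 4 μM, ATP 15 μM, compound in 11-point 1:3 series from 10 μM, 1 h, room temperature, duplicate wells.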
As for `CC(C)(F)CNc1ncc2c(-c3ccn4ncc(C5CC5)c4n3)c[nH]c2n1` [Compound 1695, 5-(3-Cyclopropylpyrazolo[1,5-a]pyrimidin-5-yl)-N-(2-fluoro-2-methylpropyl)-7H-pyrrolo[2,3-d]pyrimidin-2-amine], the EC50 (usually the concentration that produces a half-maximal response) turned out to be 5.1 nM. For `CN1CCC(CNc2ncc3c(-c4ccc5c(c4)OCCNC5=O)c[nH]c3n2)CC1` [Compound 1758, 8-(2-(((1-Methylpiperidin-4-yl)methyl)amino)-7H-pyrrolo[2,3-d]pyrimidin-5-yl)-3,4-dihydrobenzo[f][1,4]oxazepin-5(2H)-one] the value was 7.3 nM; for `CN1CCN(c2cc(Nc3ncc4c(-c5ccc6c(c5)CCCO6)c[nH]c4n3)ccn2)CC1` [Compound 1768, 5-(Chroman-6-yl)-N-(2-(4-methylpiperazin-1-yl)pyridin-4-yl)-7H-pyrrolo [2,3-d]pyrimidin-2-amine], 34.8 nM; for `CN1CCC(Nc2ncc3c(-c4ccc5c(c4)OC(C)(C)CC5=O)c[nH]c3n2)CC1` [Compound 1801, 2,2-Dimethyl-7-(2-((1-methylpiperidin-4-yl)amino)-7H-pyrrolo[2,3-d]pyrimidin-5-yl)chroman-4-one], 66.9 nM.

`COc1nc(CC(C)C)nc2[nH]cc(-c3ccc4ncccc4c3)c12` [Compound 1857, 6-(2-Isobutyl-4-methoxy-7H-pyrrolo[2,3-d]pyrimidin-5-yl)quinoline]: the EC50 amounted to 42.7 nM.

With `Nc1ncc2c(-c3ccc4ncccc4c3)c[nH]c2n1` [Compound 1862, 5-(Quinolin-6-yl)-7H-pyrrolo[2,3-d]pyrimidin-2-amine], the EC50 amounted to 2.9 nM. For `CNc1ncc2c(-c3ccc4ncccc4c3)c[nH]c2n1` [Compound 1863, N-Methyl-5-(quinolin-6-yl)-7H-pyrrolo[2,3-d]pyrimidin-2-amine] the value was 2.9 nM; for `CC(C)(C)CNc1ncc2c(-c3ccc4ncccc4c3)c[nH]c2n1` [Compound 1867, N-Neopentyl-5-(quinolin-6-yl)-7H-pyrrolo[2,3-d]pyrimidin-2-amine], 69.7 nM. To `CC(C)(F)CNc1ncc2c(-c3ccc4ncccc4c3)c[nH]c2n1` [Compound 1869, N-(2-Fluoro-2-methylpropyl)-5-(quinolin-6-yl)-7H-pyrrolo[2,3-d]pyrimidin-2-amine] belongs 4 nM. For `c1cnc2ccc(-c3c[nH]c4nc(NC5CCOCC5)ncc34)cc2c1` [Compound 1890, 5-(Quinolin-6-yl)-N-(tetrahydro-2H-pyran-4-yl)-7H-pyrrolo[2,3-d]pyrimidin-2-amine] the value was 6 nM. Turning to `CN1CCN(c2cccc(Nc3ncc4c(-c5ccc6ncccc6c5)c[nH]c4n3)c2)CC1` [Compound 1891, N-(3-(4-Methylpiperazin-1-yl)phenyl)-5-(quinolin-6-yl)-7H-pyrrolo[2,3-d]pyrimidin-2-amine], the half-maximal effective concentration (EC50) is 4.1 nM. For the compound `c1cnc2ccc(-c3c[nH]c4nc(Nc5ccncc5)ncc34)cc2c1` [Compound 1892, N-(pyridin-4-yl)-5-(quinolin-6-yl)-7H-pyrrolo[2,3-d]pyrimidin-2-amine], the EC50 was 0.8 nM. For the compound `CN1CCN(c2cc(Nc3ncc4c(-c5ccc6ncccc6c5)c[nH]c4n3)ccn2)CC1` [Compound 1893, N-(2-(4-Methylpiperazin-1-yl)pyridin-4-yl)-5-(quinolin-6-yl)-7H-pyrrolo [2,3-d]pyrimidin-2-amine], the EC50 stood at 0.5 nM. For the compound `CN1CCN(c2ccc(Nc3ncc4c(-c5ccc6ncccc6c5)c[nH]c4n3)cn2)CC1` [Compound 1894, N-(6-(4-Methylpiperazin-1-yl)pyridin-3-yl)-5-(quinolin-6-yl)-7H-pyrrolo [2,3-d]pyrimidin-2-amine], the concentration for a half-maximal effect (EC50) was found to be 2.3 nM. For `CN1CCN(c2ccc(CNc3ncc4c(-c5ccc6ncccc6c5)c[nH]c4n3)cn2)CC1` [Compound 1895, N-((6-(4-Methylpiperazin-1-yl)pyridin-3-yl)methyl)-5-(quinolin-6-yl)-7H-pyrrolo[2,3-d]pyrimidin-2-amine] the value was 3.6 nM. To `c1cnc2ccc(-c3ncc4c(-c5ccc6ncccc6c5)c[nH]c4n3)cc2c1` [Compound 1896, 6,6′-(7H-pyrrolo[2,3-d]pyrimidine-2,5-diyl)diquinoline] belongs 15.6 nM; to `Cn1cc(-c2ncnc3[nH]cc(-c4ccc5ncccc5c4)c23)cn1` [Compound 1897, 6-(4-(1-methyl-1H-pyrazol-4-yl)-7H-pyrrolo[2,3-d]pyrimidin-5-yl)quinoline], 18.1 nM. For `c1cnc2ccc(-c3c[nH]c4ncnc(N[C@H]5CC[C@H](N6CCOCC6)CC5)c34)cc2c1` [Compound 1898, N-(trans-4-Morpholinocyclohexyl)-5-(quinolin-6-yl)-7H-pyrrolo[2,3-d]pyrimidin-4-amine] the value was 7.5 nM; for `Cc1nc(OCC2CCN(C)CC2)c2c(-c3ccc4ncccc4c3)c[nH]c2n1` [Compound 1899, 6-(2-Methyl-4-((1-methylpiperidin-4-yl)methoxy)-7H-pyrrolo[2,3-d]pyrimidin-5-yl)quinoline], 18.6 nM; for `CC(C)(C)CNc1ncc2c(-c3ccc4nccnc4c3)c[nH]c2n1` [Compound 1911, N-Neopentyl-5-(quinoxalin-6-yl)-7H-pyrrolo[2,3-d]pyrimidin-2-amine], 117 nM. Regarding `C[C@@H](Nc1ncc2c(-c3ccc4nccnc4c3)c[nH]c2n1)C(F)(F)F` [Compound 1916, (R)-5-(Quinoxalin-6-yl)-N-(1,1,1-trifluoropropan-2-yl)-7H-pyrrolo[2,3-d]pyrimidin-2-amine], the EC50 stood at 6 nM. To `CN1CCC(Nc2ncc3c(-c4ccc5nccnc5c4)c[nH]c3n2)CC1` [Compound 1932, N-(1-Methylpiperidin-4-yl)-5-(quinoxalin-6-yl)-7H-pyrrolo[2,3-d]pyrimidin-2-amine] belongs 12.5 nM; to `c1cnc2cc(-c3c[nH]c4nc(NC5CCOCC5)ncc34)ccc2n1` [Compound 1934, 5-(Quinoxalin-6-yl)-N-(tetrahydro-2H-pyran-4-yl)-7H-pyrrolo[2,3-d]pyrimidin-2-amine], 7.8 nM; to `CN1CCN(c2ccc(Nc3ncc4c(-c5ccc6nccnc6c5)c[nH]c4n3)cn2)CC1` [Compound 1938, N-(6-(4-Methylpiperazin-1-yl)pyridin-3-yl)-5-(quinoxalin-6-yl)-7H-pyrrolo [2,3-d]pyrimidin-2-amine], 3.3 nM. Turning to `CC(C)(F)CNc1ncc2c(-c3ccc4ncncc4c3)c[nH]c2n1` [Compound 1956, N-(2-Fluoro-2-methylpropyl)-5-(quinazolin-6-yl)-7H-pyrrolo[2,3-d]pyrimidin-2-amine], the EC50 came out at 11.9 nM.

Take `CN1CCN(c2ccc(CNc3ncc4c(-c5ccc6ncncc6c5)c[nH]c4n3)cn2)CC1` [Compound 1982, N-((6-(4-Methylpiperazin-1-yl)pyridin-3-yl)methyl)-5-(quinazolin-6-yl)-7H-pyrrolo[2,3-d]pyrimidin-2-amine]: the EC50 was found to be 2.9 nM. On to `CN1CCN(c2ncnc3ccc(-c4c[nH]c5nc(N)ncc45)cc23)CC1` [Compound 1986, 5-(4-(4-Methylpiperazin-1-yl)quinazolin-6-yl)-7H-pyrrolo[2,3-d]pyrimidin-2-amine], for which the EC50 came out at 41.6 nM. For `CN1CCN(c2ncnc3ccc(-c4c[nH]c5nc(C6CC6)ncc45)cc23)CC1` [Compound 1987, 6-(2-Cyclopropyl-7H-pyrrolo[2,3-d]pyrimidin-5-yl)-4-(4-methylpiperazin-1-yl)quinazoline] the value was 70.4 nM; for `CN1CCC(Oc2cnc3ccc(-c4c[nH]c5nc(N)ncc45)cc3n2)CC1` [Compound 1994, 5-(3-((1-Methylpiperidin-4-yl)oxy)quinoxalin-6-yl)-7H-pyrrolo[2,3-d]pyrimidin-2-amine], 13.8 nM; for `CN1CCN(c2cc(Nc3ncc4c(-c5ccn6ncc(-c7cccnc7)c6c5)c[nH]c4n3)ccn2)CC1` [Compound 2031, N-(2-(4-methylpiperazin-1-yl)pyridin-4-yl)-5-(3-(pyridin-3-yl)pyrazolo[1,5-a]pyridin-5-yl)-7H-pyrrolo[2,3-d]pyrimidin-2-amine], 12.8 nM. As for `CNc1ncc2c(-c3ccn4ncc(C(=O)N5CCN(C)CC5)c4c3)c[nH]c2n1` [Compound 2032, (5-(2-(Methylamino)-7H-pyrrolo[2,3-d]pyrimidin-5-yl)pyrazolo[1,5-a]pyridin-3-yl)(4-methylpiperazin-1-yl)methanone], the EC50 came out at 58.8 nM. Turning to `CO[C@H]1C[C@@H](Nc2ncc3c(-c4ccc5nccn5n4)c[nH]c3n2)C1` [Compound 2053, 5-(Imidazo[1,2-b]pyridazin-6-yl)-N-(cis-3-methoxycyclobutyl)-7H-pyrrolo [2,3-d]pyrimidin-2-amine], the EC50 turned out to be 1.9 nM.

As to `CO[C@H]1C[C@@H](Nc2ncc3c(-c4ccn5nccc5n4)c[nH]c3n2)C1` [Compound 2070, N-(cis-3-Methoxycyclobutyl)-5-(pyrazolo[1,5-a]pyrimidin-5-yl)-7H-pyrrolo [2,3-d]pyrimidin-2-amine], the EC50 was found to be 2.9 nM. For the compound `CO[C@H]1C[C@@H](Nc2ncc3c(-c4ccc5ncccc5c4)c[nH]c3n2)C1` [Compound 2075, N-(cis-3-Methoxycyclobutyl)-5-(quinolin-6-yl)-7H-pyrrolo[2,3-d]pyrimidin-2-amine], the EC50 amounted to 8 nM. For `CO[C@H]1C[C@@H](Nc2ncc3c(-c4ccc5nccnc5c4)c[nH]c3n2)C1` [Compound 2076, N-(cis-3-Methoxycyclobutyl)-5-(quinoxalin-6-yl)-7H-pyrrolo[2,3-d]pyrimidin-2-amine], the EC50 is 5.7 nM.

For the compound `FC(F)(F)O[C@H]1CC[C@@H](Nc2ncc3c(-c4ccn5nccc5c4)c[nH]c3n2)CC1` [Compound 2104, 5-(Pyrazolo[1,5-a]pyridin-5-yl)-N-(cis-4-(trifluoromethoxy)cyclohexyl)-7H-pyrrolo[2,3-d]pyrimidin-2-amine], the EC50 came out at 690 nM.

These data come from patent US20250129104A1, “7H-PYRROLO[2,3-D]PYRIMIDINES AND PREPARATION AND USES THEREOF” (BioSplice Therapeutics, Inc., priority 2021, published 2025).
